{"source": "paper PMC6403363", "about": "“Proteolytic Degradation of reduced Human Beta Defensin 1 generates a Novel Antibiotic Octapeptide” (Scientific Reports, 2019)", "key": {"[1]": {"system": "C. albicans SC5314", "assay": "Model of oral candidiasis: RHOE infected with C. albicans", "format": "cell-based, Candida albicans", "conditions": "RHOE preincubated 1 h with 50 µg/ml peptide, infected with C. albicans for 24 h; for fungal load / invasion of the epithelium: histology (Fig. 5A)", "description": "Octapeptides were diluted to 50 µg/ml in PBS, or an equivalent volume of 0.01% acetic acid were applied to the apical side of the RHOEs and incubated for 1 h. C. albicans SC5314 was synchronized as described previously. Yeast cells were washed three times in PBS and 1 × 10^5 CFU were used for infection of pre-treated RHEs. After 24 h RHEs were fixed with Karnovsky’s fixative. Post-fixed samples (1% OsO4, 1 h) were rinsed with distilled water, block-stained with uranyl acetate (2% in distilled water), dehydrated in alcohol (stepwise 30–96%), immersed in propylene oxide and embedded in glycide ether (polymerized 48 h at 60 °C, Serva, Heidelberg). Semi-thin sections were stained with toluidine blue and examined with a Nikon Eclipse 80i light microscope (magnification 1:400). Afterwards, fungal cells were simply coloured in red."}, "[2]": {"system": "E. coli ATCC 25922", "assay": "Broth microdilution assay (turbidity and CFU)", "format": "cell-based, Escherichia coli", "conditions": "100 µg/ml peptide, 2 hours at 37 °C, plated on agar (Fig. 2D)", "description": "To differentiate between microbistatic and microbicidal activity we performed a broth microdilution assay. For that, E. coli ATCC25922 bacteria were incubated overnight at 37 °C, 150 rpm. C. albicans ATCC 10231 was grown at 30 °C overnight, 150 rpm in liquid TSB. Cells were collected by centrifugation (2500 rpm, 10 min, 4 °C), washed twice and resuspended in 10 mM sodium phosphate buffer containing 1% (w/v) TSB broth. Required C. albicans cell density was adjusted using a hemocytometer. For bacteria the optical density of OD600nm = 0.1 was determined. Approximately 5 × 10^5 CFU/ml bacteria or fungi were mixed with indicated peptide concentrations (1.25–200 µg/ml) in a final volume of 100 µl in 10 mM sodium phosphate buffer containing 1% (w/v) TSB broth and incubated for 2 hours at 37 °C. After incubation 10 µl per well were plated on LB-/ or YPD-agar plates to determine the CFU/ml. After that 100 µl of 6% TSB (w/v) were added and absorbance was measured at 600 nm (Tecan, Switzerland) and monitored for 18 hours. Growth relative to the positive control in % was plotted against peptide concentration. Experiments were carried out at least three times; mean ± SEM is shown."}, "[3]": {"system": "selected commensal and pathogenic microorganisms", "assay": "Radial diffusion assay, semi-quantitative evaluation on a molar base", "format": "cell-based", "conditions": "4 µg reduced hBD-1 equivalent to 254 µM, 1 µg octapeptide equivalent to 280 µM in the RDA", "description": "(§1) Antimicrobial radial diffusion assay was modified from reference[17] and performed as described earlier. Briefly, microorganisms were cultivated (anaerobic bacteria with AnaeroGen, Oxoid, UK) for up to 18 hours in liquid TSB medium. Log-phase cultures were washed and diluted to 4 × 10^6 colony forming units in 10 ml agar. Incubation was carried out in 10 ml of 10 mM sodium phosphate, either pH 7.4 or 5.7, containing 0.3 mg/ml of TSB powder and 1% (w/v) low EEO-agarose (AppliChem) with 0 or 1 mM dithiothreitol (DTT, Sigma-Aldrich) under anaerobic or aerobic conditions for three hours. 1 or 4 µg of synthetic, oxidized hBD-1 (Peptide Institute, Japan) and 1 or 4 µg of synthetic peptides (EMC Microcollections, Tuebingen) were filled into small punched wells in a final volume of 4 µl. This concentrated peptide solution dilutes while diffusing into the gel, thereby generating concentration-dependent, round-shaped inhibition zones when killing immobilized microorganisms.\n(§2) An overlay-gel containing 6% (w/v) TSB powder, 1% agarose and 10 mM sodium phosphate buffer without DTT was poured onto the plates and after incubation for up to 48 h at 37 °C the diameter of inhibition zones was measured. Experiments were repeated at least three times; mean + SEM is shown."}, "[4]": {"system": "C. albicans ATCC 10231", "assay": "Flow cytometric assay, propidium iodide uptake", "format": "cell-based, Candida albicans", "conditions": "100 µg/ml peptide, 1 h, flow cytometry (Fig. 3A)", "description": "(§3) Approximately 1.5 × 10^6 CFU log-phase bacteria or overnight cultured C. albicans ATCC 10231 were used in a final volume of 100 µl TSB (1:6 diluted H2O). We added peptides in concentrations 50 and 100 µg/ml in a final volume of 10 µl and incubated theses suspensions for 1 h at 37 °C. Subsequently 2 µl of membrane potential sensitive dye DiBAC4(3) [bis-[1,3-dibutylbarituric acid)trimethine oxonol] (Thermo Scientific, USA) (50 µg/ml) or Propidium Iodide (Thermo Scientific, USA) (50 µg/ml) were added and incubated for 10 min at room temperature. Then samples were centrifuged (5 min, 7000 rpm, RT) and re-suspended in 300 µl PBS. The percentage of fluorescent positive cells was determined using Canto II flow cytometer (BD Bioscience) with DIVA software (BD Bioscience) as described earlier. Experiments were repeated at least three times and mean +/− SEM is shown."}, "[5]": {"system": "E. coli ATCC 25922", "assay": "Flow cytometric assay, propidium iodide uptake", "format": "cell-based, Escherichia coli", "conditions": "100 µg/ml peptide, 1 h, flow cytometry, at least three experiments (Fig. 3A)", "description": "as §3"}, "[6]": {"system": "Escherichia coli", "assay": "Radial diffusion assay", "format": "cell-based", "conditions": "for antimicrobial activity against E. coli (diameter of inhibition zones): 4 µg peptide, variants compared with RGKAKCCK (Fig. 1E,F, Fig. 2A)", "description": "as §1, §2"}, "[7]": {"system": "Pseudomonas aeruginosa", "assay": "Radial diffusion assay", "format": "cell-based", "conditions": "P. aeruginosa ATCC type strain (Figs 1D, 2A)", "description": "as §1, §2"}, "[8]": {"system": "Candida albicans", "assay": "Radial diffusion assay", "format": "cell-based", "conditions": "for antimicrobial activity against C. albicans (diameter of inhibition zones): 4 µg peptide, variants compared with RGKAKCCK (Fig. 1E,F, Fig. 2A)", "description": "as §1, §2"}, "[9]": {"system": "Bifidobacterium adolescentis", "assay": "Radial diffusion assay", "format": "cell-based", "conditions": "10 mM sodium phosphate, 1 or 4 µg peptide per well, at least three experiments (Fig. 1D)", "description": "as §1, §2"}, "[10]": {"system": "Bifidobacterium breve", "assay": "Radial diffusion assay", "format": "cell-based", "conditions": "1 or 4 µg peptide per well (Fig. 1D)", "description": "as §1, §2"}, "[11]": {"system": "Streptococcus salivarius ssp. thermophilus", "assay": "Radial diffusion assay", "format": "cell-based", "conditions": "1 or 4 µg peptide per well, at least three experiments (Fig. 1D)", "description": "as §1, §2"}, "[12]": {"system": "antibiotic-resistant bacteria", "assay": "Radial diffusion assay, drug-resistant clinical isolates overall", "format": "cell-based", "conditions": "4 µg peptide, direct comparison of the four peptides (Fig. 2B)", "description": "as §1, §2"}, "[13]": {"system": "pepsin", "assay": "Protease digestion with pepsin, fragments analysed by MALDI-MS", "format": "in vitro ADME", "conditions": "2 µg peptide, protease:peptide 1:20, HCl-acidified water pH 3, 90 min", "description": "(§4) 2 µg of oxidized or reduced hBD-1 were digested with pepsin or chymotrypsin at a protease: peptide ratio of 1:20 in HCl-acidified water, pH 3 (pepsin) or 10 mM sodium phosphate, pH 7.4 (chymotrypsin) for 90 min. Human duodenal secretion (pH 6.5–7) was taken during a routine gastroscopy by rinsing the duodenum with saline. Oxidized and reduced hBD-1 were incubated with human duodenal secretion for 30 min at 37 °C. As a control both peptides were incubated with 0.9% NaCl. Peptides were enriched with ZipTip (Millipore), co-crystallized with a-cyano-4-hydroxy cinnamic acid and analyzed with an ultraflex TOF/TOF machine (Bruker, Germany)."}, "[14]": {"system": "chymotrypsin", "assay": "Protease digestion with chymotrypsin, fragments analysed by MALDI-MS", "format": "in vitro ADME", "conditions": "2 µg peptide, protease:peptide 1:20, 10 mM sodium phosphate pH 7.4, 90 min", "description": "as §4"}, "[15]": {"format": "in vitro ADME, human", "conditions": "pH 6.5", "description": "as §4"}, "[16]": {"system": "trypsin", "conditions": "cited from earlier work", "source_text": "Due to their ancient evolutionary origin and the strong demand for novel antimicrobial strategies, AMPs have been considered as potential antibiotic drug candidates. Mainly because they target “Achilles heels” of microorganisms, only few resistance mechanisms have been evolved over long time[14],[15]. Still, large-scale chemical synthesis of defensins containing three native disulphide-bridges has been a challenge and rendered the production expensive. Accordingly, the production of smaller, but yet antibiotic, fragments of defensins without disulphide bridges is a promising option. We have sh ..."}, "[17]": {"conditions": "1 or 4 µg peptide per well, at least three experiments (Fig. 1D)"}}, "note": "Where a SMILES comes first, the peptide text is derived from it. Where no end group is shown, it is not given here."}
{"compound": "CC(=O)N[C@@H](CCCNC(=N)N)C(=O)NCC(=O)N[C@@H](CCCCN)C(=O)N[C@@H](C)C(=O)N[C@@H](CCCCN)C(=O)N[C@@H](CS)C(=O)N[C@@H](CS)C(=O)N[C@@H](CCCCN)C(N)=O", "note": "[Ac-RGKAKCCK-NH2] (Ac-RGKAKCCK-NH2)", "values": [{"measurement": "fungal load / invasion of the epithelium", "setting": "[1]", "value": "invaded the whole epithelium"}, {"measurement": "decrease in CFU of E. coli compared to untreated controls", "setting": "[2]", "value": "more than 100 fold"}]}
{"compound": "C[C@H](NC(=O)[C@H](CCCCN)NC(=O)CNC(=O)[C@@H](N)CCCNC(=N)N)C(=O)N[C@@H](CCCCN)C(=O)N[C@@H](CS)C(=O)N[C@@H](CS)C(=O)N[C@@H](CCCCN)C(=O)O", "note": "[RGKAKCCK] (H-RGKAKCCK-OH)", "values": [{"measurement": "activity on a molar base compared with the full length-peptide", "setting": "[3]", "value": "less potent"}, {"measurement": "PI uptake of C. albicans", "setting": "[4]", "value": "up to 60%"}, {"measurement": "PI uptake / bacterial killing (cell death) of E. coli", "setting": "[5]", "value": "~100", "unit": "%"}, {"measurement": "epithelial damage", "setting": "[1]; blinded scale 0 to 5 (Fig. 5B)", "value": "ameliorated epithelial damage"}, {"measurement": "fungal load / invasion of the epithelium", "setting": "[1]", "value": "convincingly reduced the fungal load"}, {"measurement": "antimicrobial activity (diameter of inhibition zones)", "setting": "[6]; [17]", "value": "convincing activity"}, {"measurement": "antimicrobial activity (diameter of inhibition zones)", "setting": "[7]", "value": "neglectable antibiotic activity"}, {"measurement": "antimicrobial activity (diameter of inhibition zones)", "setting": "[8]; [17]", "value": "convincing activity"}, {"measurement": "antimicrobial activity (diameter of inhibition zones)", "setting": "[9]", "value": "convincing activity"}, {"measurement": "antimicrobial activity (inhibition zones)", "setting": "[10]", "value": "no inhibition zones"}, {"measurement": "antimicrobial activity (diameter of inhibition zones)", "setting": "[11]", "value": "convincing activity"}, {"measurement": "decrease in CFU of E. coli compared to untreated controls", "setting": "[2]", "value": "more than 100 fold"}, {"measurement": "spectrum against the tested antibiotic-resistant bacteria", "setting": "[12]", "value": "inhibited growth of the most tested antibiotic-resistant bacteria"}]}
{"compound": "AGAAKCCK [variant lacking Arg1 and Lys3]", "values": [{"measurement": "antimicrobial activity against E. coli (diameter of inhibition zones)", "setting": "[6]", "value": "completely inactive"}, {"measurement": "antimicrobial activity against C. albicans (diameter of inhibition zones)", "setting": "[8]", "value": "completely inactive"}]}
{"compound": "AGKAKCCK [variant lacking Arg1]", "values": [{"measurement": "antimicrobial activity against E. coli (diameter of inhibition zones)", "setting": "[6]", "value": "completely inactive"}, {"measurement": "antimicrobial activity against C. albicans (diameter of inhibition zones)", "setting": "[8]", "value": "completely inactive"}]}
{"compound": "DHYNCVSSGGQCLYSACPIFTKIQGTCYRGKAKCCK (disulfide (positions not given here)) [oxidized hBD-1, host-defense peptide human beta-defensin 1 with three disulphide bridges]", "values": [{"measurement": "proteolytic susceptibility towards pepsin", "setting": "[13]", "value": "protease resistant"}, {"measurement": "proteolytic susceptibility towards chymotrypsin", "setting": "[14]", "value": "protease resistant"}, {"measurement": "antimicrobial activity (inhibition zones)", "setting": "[10]", "value": "no inhibition zones"}]}
{"compound": "DHYNCVSSGGQCLYSACPIFTKIQGTCYRGKAKCCK [reduced hBD-1, hBD-1 after reduction of its three disulphide bridges, a linear peptide]", "values": [{"measurement": "digestion by human duodenal secretion (generation of fragment m/z 893.5)", "setting": "[15]", "value": "generated a fragment having an m/z of 893.5"}, {"measurement": "antimicrobial activity (inhibition zones)", "setting": "[10]", "value": "inhibited its growth"}, {"measurement": "degradation by the intestinal protease trypsin", "setting": "[16]", "value": "can be degraded"}]}
{"compound": "RGKAKAAK [octapeptide with both cysteines replaced]", "values": [{"measurement": "antimicrobial activity against E. coli (diameter of inhibition zones)", "setting": "[6]", "value": "completely abolished activity"}, {"measurement": "antimicrobial activity against C. albicans (diameter of inhibition zones)", "setting": "[8]", "value": "completely abolished activity"}]}
{"compound": "RGKAKACK [octapeptide with Cys6 replaced by alanine]", "values": [{"measurement": "antimicrobial activity against E. coli (diameter of inhibition zones)", "setting": "[6]", "value": "increased"}, {"measurement": "antimicrobial activity against C. albicans (diameter of inhibition zones)", "setting": "[8]", "value": "strongly decreased activity"}]}
{"compound": "RGKAKCAK [octapeptide with Cys7 replaced by alanine]", "values": [{"measurement": "antimicrobial activity against E. coli (diameter of inhibition zones)", "setting": "[6]", "value": "increased"}, {"measurement": "antimicrobial activity against C. albicans (diameter of inhibition zones)", "setting": "[8]", "value": "strongly decreased activity"}]}
